Here are results for 31 molecules from the Kinase Knowledgebase extract (Sharma et al. 2016).

The term inhibition denotes the change of the read-out against control, counted positive when it falls. Higher therefore signals a strong effect. As a reminder, the IC50 is the point on the concentration scale where inhibition reaches its midpoint. A low value points to greater potency in that assay.

Experiment [1] has as its target MAPK14 (human) (UniProt Q16539). The experiment in a line: Inhibition of MAPK14 Kinase Activity by PHAS-I Assay. As to conditions: for inhibition: concentration not given here.
The target is the same in experiment [2]. The experiment in a line: Inhibition of LPS Stimulated TNF Production by U937 Cells. As to conditions: for inhibition: concentration not given here.

MAPK14 (human), sequence (Q16539 whole entry, looked up): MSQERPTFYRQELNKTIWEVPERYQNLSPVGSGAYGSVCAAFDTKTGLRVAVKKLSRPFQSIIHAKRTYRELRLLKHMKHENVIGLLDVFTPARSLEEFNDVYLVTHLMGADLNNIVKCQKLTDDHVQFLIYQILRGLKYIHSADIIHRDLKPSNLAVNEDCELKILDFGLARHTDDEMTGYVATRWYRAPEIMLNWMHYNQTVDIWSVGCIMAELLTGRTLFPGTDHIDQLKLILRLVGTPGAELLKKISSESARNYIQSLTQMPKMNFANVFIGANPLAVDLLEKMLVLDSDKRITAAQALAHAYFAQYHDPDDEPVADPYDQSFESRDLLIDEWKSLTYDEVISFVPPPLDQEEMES

With `CC(Oc1ccccc1)C(=O)NCCc1[nH]nc(-c2ccc(F)cc2)c1-c1ccncc1` (configuration not stated), the inhibition against MAPK14 (human) [1] was 80%; against MAPK14 (human) [2], 55%.
As to `O=C(NCCc1[nH]nc(-c2ccc(F)cc2)c1-c1ccncc1)c1ccccn1`, the inhibition was 52% against MAPK14 (human) [1] and 34% against MAPK14 (human) [2].
`O=S(=O)(NCc1[nH]nc(-c2ccc(F)cc2)c1-c1ccncc1)c1ccc(OC(F)(F)F)cc1`: the inhibition against MAPK14 (human) [1] amounted to 42%. The same molecule returned a 50% inhibitory concentration (IC50) against MAPK14 (human) [2] of 3630 nM.
For `CCOC(=O)C(NC(=O)NCCc1[nH]nc(-c2ccc(F)cc2)c1-c1ccncc1)C(C)C` (configuration not stated), the inhibition amounted to 79% against MAPK14 (human) [1] and 36% on MAPK14 (human) [2].
For `COc1cccc(C(=O)NCCCc2[nH]nc(-c3ccc(F)cc3)c2-c2ccncc2)c1`, at MAPK14 (human) [1], the inhibition came out at 71%. The molecule also had an IC50 against MAPK14 (human) [2] of 790 nM.
As for `CCc1ccccc1NC(=O)NCCc1[nH]nc(-c2ccc(F)cc2)c1-c1ccncc1`, the inhibition turned out to be 79% on MAPK14 (human) [1] and 22% at MAPK14 (human) [2].
For `O=C(NCCc1[nH]nc(-c2ccc(F)cc2)c1-c1ccncc1)c1cccnc1` the same measures were 58% and 23%.
On MAPK14 (human) [1], `CCC(=O)C(=O)CCCCCNC(=O)NCCc1[nH]nc(-c2ccc(F)cc2)c1-c1ccncc1` returned an inhibition of 69%. At MAPK14 (human) [2], this molecule yielded an IC50 of over 1000 nM.
Regarding `C=Cc1ccc(S(=O)(=O)NCc2[nH]nc(-c3ccc(F)cc3)c2-c2ccncc2)cc1`, the inhibition against MAPK14 (human) [1] worked out at 67%; against MAPK14 (human) [2], 9%.
The molecule `O=S(=O)(NCc1[nH]nc(-c2ccc(F)cc2)c1-c1ccncc1)c1cc(Cl)c(Cl)s1` showed an inhibition on MAPK14 (human) [1] of 78%. The IC50 at MAPK14 (human) [2] was determined as 1810 nM.
As to `O=C(NCCc1[nH]nc(-c2ccc(F)cc2)c1-c1ccncc1)C1CCCC1`, the values for the inhibition on MAPK14 (human) [1] and on MAPK14 (human) [2] were 79% and 45%, respectively.
On to `COc1ccc(Br)cc1S(=O)(=O)N[C@@H](C)c1[nH]nc(-c2ccc(F)cc2)c1-c1ccncc1`, for which the IC50 against MAPK14 (human) [1] was determined as 1780 nM. This molecule also yielded an inhibition against MAPK14 (human) [2] of 81%.
Regarding `O=C(NCc1[nH]nc(-c2ccc(F)cc2)c1-c1ccncc1)N1CCOCC1`, the IC50 at MAPK14 (human) [1] was 560 nM; on MAPK14 (human) [2] it was over 1000 nM.
Take `Cc1c(-c2ccncc2)c(-c2ccc(F)cc2)nn1CC(=O)Nc1ccc(CCC(=O)c2cccnc2)cc1`: the inhibition against MAPK14 (human) [1] was found to be 94%; against MAPK14 (human) [2], 15%.
On MAPK14 (human) [1], `COc1ccc(Br)cc1S(=O)(=O)N[C@H](C)c1[nH]nc(-c2ccc(F)cc2)c1-c1ccncc1` had an IC50 of 24 nM. The molecule further showed an inhibition against MAPK14 (human) [2] of 86%.
Consider `CNC(=O)CC[C@H](NC(=O)c1ccc(I)cc1)c1[nH]nc(-c2ccc(F)cc2)c1-c1ccncc1`, for which the IC50 against MAPK14 (human) [1] turned out to be 3280 nM. For the same molecule, the inhibition against MAPK14 (human) [2] came to 8%.
As for `CCS(=O)(=O)NCCc1[nH]nc(-c2ccc(F)cc2)c1-c1ccncc1`, the inhibition turned out to be 93% against MAPK14 (human) [1] and 70% against MAPK14 (human) [2].
`O=C(NCCc1[nH]nc(-c2ccc(F)cc2)c1-c1ccncc1)c1ccccc1`: the inhibition against MAPK14 (human) [1] came out at 74%; against MAPK14 (human) [2] it was 29%.
Consider `Cc1c(-c2ccncc2)c(-c2ccc(F)cc2)nn1CC(=O)N[C@@H](C)C1CCCCC1`, for which the inhibition was 64% at MAPK14 (human) [1] and 38% on MAPK14 (human) [2].
`O=C(NCCc1[nH]nc(-c2ccc(F)cc2)c1-c1ccncc1)NC(=O)c1ccccc1`: the inhibition against MAPK14 (human) [1] was 67%; against MAPK14 (human) [2], 36%.
On to `CC[C@H](NC(=O)Cn1nc(-c2ccc(F)cc2)c(-c2ccncc2)c1C)c1ccccc1`, for which the figures for the inhibition against MAPK14 (human) [1] and against MAPK14 (human) [2] were 48% and 35%, respectively.
Regarding `CC(=O)O[C@@H](C)C(=O)NCCc1[nH]nc(-c2ccc(F)cc2)c1-c1ccncc1`, the inhibition against MAPK14 (human) [1] stood at 57%; against MAPK14 (human) [2], 73%.
At MAPK14 (human) [1], `O=C(NCc1[nH]nc(-c2ccc(F)cc2)c1-c1ccncc1)Nc1ccccc1F` came in with an inhibition of 23%. The same molecule returned an IC50 on MAPK14 (human) [2] of 2050 nM.
For `O=S(=O)(NCCc1[nH]nc(-c2ccc(F)cc2)c1-c1ccncc1)c1ccc(Cl)c(Cl)c1`, the IC50 at MAPK14 (human) [1] was 330 nM. At MAPK14 (human) [2], this molecule displayed an inhibition of 36%.
Take `Cc1c(-c2ccncc2)c(-c2ccc(F)cc2)nn1CC(=O)N1CCCN(C)CC1`: the inhibition was 51% against MAPK14 (human) [1] and 24% against MAPK14 (human) [2].
Regarding `O=C(NCc1[nH]nc(-c2ccc(F)cc2)c1-c1ccncc1)Nc1ccc(I)cc1`, the inhibition came to 27% against MAPK14 (human) [1] and 35% at MAPK14 (human) [2].
In the case of `CC(=O)Nc1ccc(S(=O)(=O)N[C@@H](C)c2[nH]nc(-c3ccc(F)cc3)c2-c2ccncc2)cc1`, at MAPK14 (human) [1], the half-inhibitory concentration (IC50) was 59 nM. The molecule further gave an inhibition at MAPK14 (human) [2] of 73%.
With `O=C(NCc1[nH]nc(-c2ccc(F)cc2)c1-c1ccncc1)c1cccc(CCl)c1`, the figures for the inhibition on MAPK14 (human) [1] and against MAPK14 (human) [2] were 83% and 21%, respectively.
Consider `COc1ccc(OC)c(NC(=O)NCCc2[nH]nc(-c3ccc(F)cc3)c2-c2ccncc2)c1`, for which, on MAPK14 (human) [1], the inhibition was determined as 76%. Besides, on MAPK14 (human) [2], the IC50 was 880 nM.
For `O=S(=O)(NCCc1[nH]nc(-c2ccc(F)cc2)c1-c1ccncc1)c1ccccc1`, the figures for the inhibition on MAPK14 (human) [1] and at MAPK14 (human) [2] were 88% and 20%, respectively.
For the molecule `CCN(Cc1ccncc1)C(=O)Cn1nc(-c2ccc(F)cc2)c(-c2ccncc2)c1C`, the inhibition turned out to be 68% at MAPK14 (human) [1] and 2% at MAPK14 (human) [2].
